Here are results for 3 compounds from US9486417B2, “Transdermal therapeutic system for administering lipophilic and/or sparingly skin-permeable active substances” (LTS Lohmann Therapie-Systeme AG, priority 2005, dated 2016).

The conditions of data set [1]: cited from earlier work.
For data set [2] the following is noted: pH value of 7.4; cited from earlier work.
The conditions of data set [3]: cited from earlier work; for half-life: oral administration.
Data set [4] is classed as in vitro ADME. How it is done: The first preliminary tests carried out in accordance with the present invention with a view to developing a matrix transdermal therapeutic system for administration of vinpocetine led to transdermal therapeutic systems (TTSs) by means of which a skin flux (permeation rate in steady state) of 0.91 μg/cm^2×h could be achieved. In order to adjust the therapeutically required concentration of 2 to 3 ng/ml of vinpocetine in a patient's plasma, a transdermal therapeutic system that is designed for an application period of 24 hours would have to have an area of about 120 cm^2. For reasons of patient acceptance, however, the surface area of a transdermal therapeutic system should be kept as small as possible and, if possible, should not exceed 40 cm^2, preferably 20 cm^2.

For data set [5] the following is noted: 1% suspension of vinpocetine in ethanol and 1-menthol applied directly to human full-thickness skin in vitro; cited from earlier work.

Converted amounts (≈) assume the structure as drawn. Read-outs that look alike come from different tables or passages of the source.

For `COc1nc(C)nc(Cl)c1NC1=NCCN1` [moxonidine, 4-chloro-N-(4,5-dihydro-1H-imidazol-2-yl)-6-methoxy-2-methyl-5-pyrimidinamine], in data set [1] (base, 22° C.), the water solubility was 1360 µg/mL (≈ 5.63 mM). Besides, the “solubility in ethanol or DMSO” value in data set [1] (ethanol or DMSO) is reported as “up to 100 mM”. In data set [2], the “proportion present in cationic form” value is recorded as “about 50%”. The bioavailability entry in data set [3] (gastrointestinal absorption, not metabolised presystemically) was “about 90%”. Further, the “therapeutically required / effective plasma level” value in data set [3] (patient's plasma) is recorded as “around 5.4 ng/ml”.

In the case of `CCCN1C[C@H](CSC)C[C@@H]2c3cccc4[nH]cc(c34)C[C@H]21` [pergolide, D-6-n-propyl-8 β-methyl-mercaptomethyl-ergoline], the water-solubility in data set [1] (base, 22° C.) is 0.021 µg/mL. In addition, the half-life in data set [3] was 27 h.

In the case of `CCOC(=O)C1=C[C@]2(CC)CCCN3CCc4c(n1c1ccccc41)[C@@H]32` [vinpocetine, ethyl apovincamin-22-oate], the “skin flux (permeation rate in steady state)” value in data set [4] is 0.91 μg/cm^2×h. In data set [5], the permeation rate is recorded as 6.45 μg/cm^2×h. In addition, the water-solubility in data set [1] (room temperature) is 0.02 µg/mL. The half-life result in data set [3] was “one to two”. Moreover, in data set [3] (oral, fasting or with meals), the “time to enter the blood stream after administration” value is “about half an hour”. Moreover, the “time until excreted by the body almost completely” value in data set [3] (oral) is on record as “eight”.

One may read the half-life as the time in which the quantity being followed falls by half.
